US20050004186A1, “MEK inhibiting compounds” (Pfizer Inc, priority 2002, published 2005)
Where “and” joins values, the source holds several entries; their conditions need not be identical. Identical values can stand only once.

System: MEK
Test: Cellular assay for measuring MEK inhibition, C26CPA1 (inhibition of ERK phosphorylation in C26 cells)
Format: cell-based, murine
Details: for C26CPA1 % Inhibition @ 0.1 μM / C26CPA1 % Inhibition @ 1 μM: C26 cells; for IC50: murine colon 26 (C26) carcinoma cells, one hour at 37 C
Experimental: Cellular Assay for Measuring MEK Inhibition
MEK inhibitors were evaluated by determining their ability to inhibit phosphorylation of MAP kinase (ERK) in murine colon 26 (C26) carcinoma cells. Since ERK1 and ERK2 represent the only known substrates for MEK1 and MEK2, the measurement of inhibition of ERK phosphorylation in cells provides direct read out of cellular MEK inhibition by the compounds of the invention. Detection of phosphorylation of ERK was carried out either by Western blot or ELISA format. Briefly, the assays involve treatment of exponentially growing C26 cells with varying concentrations of the test compound (or vehicle control) for one hour at 37≡ C. For Western blot assay, cells were rinsed free of compound/vehicle and lysed in a solution containing 70 mM NaCl, 50 mM glycerol phosphate, 10 mM HEPES, […], 1% Triton X-100, 1 mM Na3VO4, 100 μM PMSF, 10 μM leupeptin and 10 μM pepstatin. Supernatants were then subjected to gel electrophoresis and hybridized to a primary antibody recognizing dually phosphorylated ERK1 and ERK2. To evaluate total MAPK levels, blots were subsequently ‘stripped’ and re-probed with a 1:1 mixture of polyclonal antibodies recognizing unphosphorylated ERK1 and ERK2. For pERK ELISA assay, pERK TiterZyme Enzyme immunometric Assay kits were acquired from Assay Designs, Inc (Ann Arbor, Mich.). Briefly, cells were harvested in lysis solution containing 50 mM β-glycerophosphate, 10 mM HEPES, pH7.4, 70 mM NaCl, 2 mM EDTA and 1% SDS and protein lysates were diluted 1:15 with supplied Assay buffer prior to the execution of the assay. The subsequent steps were carried out essentially as recommended by the manufacturer.

| IC50 | Structure (SMILES) | C26CPA1 % Inhibition @ 0.1 μM | C26CPA1 % Inhibition @ 1 μM |
| --- | --- | --- | --- |
|  | CC(C)(C)CNc1nnc(-c2ccc(F)c(F)c2Nc2ccc(I)cc2F)o1 [Example 47, {5-[3,4-Difluoro-2-(2-fluoro-4-iodo-phenylamino)-phenyl]-[1,3,4]oxadiazol-2-yl}-(2,2-dimethyl-propyl)-amine] | 18.9% | 43.2% |
| 86 nM | Cn1cccc1CCNc1nnc(-c2ccc(F)c(F)c2Nc2ccc(I)cc2F)o1 [Example 52, {5-[3,4-Difluoro-2-(2-fluoro-4-iodo-phenylamino)-phenyl]-[1,3,4]oxadiazol-2-yl}-[2-(1-methyl-1H-pyrrol-2-yl)-ethyl]-amine] |  |  |
| 910 nM | CNCCNc1nnc(-c2ccc(F)c(F)c2Nc2ccc(CCO)cc2F)o1 [Example 167, 2-(4-{2,3-difluoro-6-[5-(2-methylamino-ethylamino)-1[1,3,4]oxadiazol-2-yl]-phenylamino}-3-fluoro-phenyl)-ethanol] |  |  |
|  | CCc1ccc(Nc2c(-c3nnc(N4CCN(CC)CC4)o3)ccc(F)c2F)c(F)c1 [Example 101, (4-Ethyl-2-fluoro-phenyl)-{6-[5-(4-ethyl-piperazin-1-yl)-1,3,4-oxadiazol-2-yl]-2,3-difluoro-phenyl}-amine] | 41.2% | 47.1% |
| 45 nM | NCCCCNc1nnc(-c2ccc(F)c(F)c2Nc2ccc(I)cc2F)o1 [Example 14, N′1′-{5-[3,4-Difluoro-2-(2-fluoro-4-iodo-phenylamino)-phenyl]-[1,3,4]oxadiazol-2-yl}-butane-1,4-diamine] |  |  |
| 850 nM | CN1CCCN(c2nnc(-c3ccc(F)c(F)c3Nc3ccc(I)cc3F)o2)CC1 [Example 61, {2,3-Difluoro-6-[5-(4-methyl-[1,4]diazepan-1-yl)-[1,3,4]oxadiazol-2-yl]-phenyl}-(2-fluoro-4-iodo-phenyl)-amine] |  |  |
|  | CCc1ccc(Nc2c(-c3nnc(N4CCCC4)o3)ccc(F)c2F)c(F)c1 [Example 75, [2,3-Difluoro-6-(5-pyrrolidin-1-yl-1,3,4-oxadiazol-2-yl)-phenyl]-(4-ethyl-2-fluoro-phenyl)-amine] |  | 39.1% and 30.6% |
|  | CCc1ccc(Nc2c(-c3nnc(N4CCN(Cc5ccccn5)CC4)o3)ccc(F)c2F)c(F)c1 [Example 123, {2,3-Difluoro-6-[5-(4-pyridin-2-ylmethyl-piperazin-1-yl)-1,3,4-oxadiazol-2-yl]-phenyl}-(4-ethyl-2-fluoro-phenyl)-amine] | 0% | 0% |
|  | CCc1ccc(Nc2c(-c3nnc(NCCc4cccs4)o3)ccc(F)c2F)c(F)c1 [Example 114, {5-[2-(4-Ethyl-2-fluoro-phenylamino)-3,4-difluoro-phenyl]-1,3,4-oxadiazol-2-yl}-(2-thiophen-2-yl-ethyl)-amine] | 35.4% | 46.3% |
|  | CCCN(CC1CC1)c1nnc(-c2ccc(F)c(F)c2Nc2ccc(CC)cc2F)o1 [Example 100, Cyclopropylmethyl-{5-[2-(4-ethyl-2-fluoro-phenylamino)-3,4-difluoro-phenyl]-1,3,4-oxadiazol-2-yl}-propyl-amine] | 37.1% | 40.5% |
|  | COCCNc1nnc(-c2ccc(F)c(F)c2Nc2ccc(I)cc2F)o1 [Example 33, {5-[3,4-Difluoro-2-(2-fluoro-4-iodo-phenylamino)-phenyl]-[1,3,4]oxadiazol-2-yl}-(2-methoxy-ethyl)-amine] | 0% | 57.7% |
|  | Cc1ccc(CNc2nnc(-c3ccc(F)c(F)c3Nc3ccc(I)cc3F)o2)o1 [Example 37, {5-[3,4-Difluoro-2-(2-fluoro-4-iodo-phenylamino)-phenyl]-[1,3,4]oxadiazol-2-yl}-(5-methyl-furan-2-ylmethyl)-amine] | 18.4% | 87.2% |
|  | CCc1ccc(Nc2c(-c3nnc(N(C)C4CCN(C)C4)o3)ccc(F)c2F)c(F)c1 (centres unmarked) [Example 102, {5-[2-(4-Ethyl-2-fluoro-phenylamino)-3,4-difluoro-phenyl]-1,3,4-oxadiazol-2-yl}-methyl-(1-methyl-pyrrolidin-3-yl)-amine] | 42.4% | 54.6% |
|  | COc1ccc(OC)c(CCNc2nnc(-c3ccc(F)c(F)c3Nc3ccc(I)cc3F)o2)c1 [Example 41, {5-[3,4-Difluoro-2-(2-fluoro-4-iodo-phenylamino)-phenyl]-[1,3,4]oxadiazol-2-yl}-[2-(2,5-dimethoxy-phenyl)-ethyl]-amine] | 0% | 29.8% |
|  | CCN(CC)C1CCN(c2nnc(-c3ccc(F)c(F)c3Nc3ccc(I)cc3F)o2)C1 (centres unmarked) [Example 60, (1-{5-[3,4-Difluoro-2-(2-fluoro-4-iodo-phenylamino)-phenyl]-[1,3,4]oxadiazol-2-yl}-pyrrolidin-3-yl)-diethyl-amine] | 8.2% | 68% |
| 27 nM | CNCCNc1nnc(-c2ccc(F)c(F)c2Nc2ccc(I)cc2F)o1 [Example 18, N-{5-[3,4-Difluoro-2-(2-fluoro-4-iodo-phenylamino)-phenyl]-[1,3,4]oxadiazol-2-yl}-N′-methyl-ethane-1,2-diamine] |  |  |
|  | CCCCNc1nnc(-c2ccc(F)c(F)c2Nc2ccc(I)cc2F)o1 [Example 36, Butyl-{5-[3,4-difluoro-2-(2-fluoro-4-iodo-phenylamino)-phenyl]-[1,3,4]oxadiazol-2-yl}-amine] | 23.8% | 67% |
|  | CCc1ccc(Nc2c(-c3nnc(N(CCCN(C)C)CCCN(C)C)o3)ccc(F)c2F)c(F)c1 [Example 96, N^1-(3-Dimethylamino-propyl)-N^1-{5-[2-(4-ethyl-2-fluoro-phenylamino)-3,4-difluoro-phenyl]-1,3,4-oxadiazol-2-yl}-N>3,N>3-dimethyl-propane-1,3-diamine] | 54% | 55% |
|  | Fc1cc(I)ccc1Nc1c(-c2nnc(NCCc3ccncc3)o2)ccc(F)c1F [Example 35, {5-[3,4-Difluoro-2-(2-fluoro-4-iodo-phenylamino)-phenyl]-[1,3,4]oxadiazol-2-yl}-(2-pyridin-4-yl-ethyl)-amine] | 0% | 74.9% |
|  | Cc1cccc(C)c1OCC(C)Nc1nnc(-c2ccc(F)c(F)c2Nc2ccc(I)cc2F)o1 (centres unmarked) [Example 59, {5-[3,4-Difluoro-2-(2-fluoro-4-iodo-phenylamino)-phenyl]-[1,3,4]oxadiazol-2-yl}-[2-(2,6-dimethyl-phenoxy)-1-methyl-ethyl]-amine] | 0% | 0% |
|  | O=C1OCCC1Nc1nnc(-c2ccc(F)c(F)c2Nc2ccc(I)cc2F)o1 (centres unmarked) [Example 57, 3-{5-[3,4-Difluoro-2-(2-fluoro-4-iodo-phenylamino)-phenyl]-[1,3,4]oxadiazol-2-ylamino}-dihydro-furan-2-one] | 31.3% | 51.8% |
| 311 nM | Fc1cc(I)ccc1Nc1c(-c2nnc(NCCCN3CCOCC3)o2)ccc(F)c1F [Example 9, {5-[3,4-Difluoro-2-(2-fluoro-4-iodo-phenylamino)-phenyl]-[1,3,4]oxadiazol-2-yl}-(3-morpholin-4-yl-propyl)-amine] |  |  |
| > 1000 nM | CN(C)CCCN(C)c1nnc(-c2ccc(F)c(F)c2Nc2ccc(I)cc2F)o1 [Example 12, N-{5-[3,4-Difluoro-2-(2-fluoro-4-iodo-phenylamino)-phenyl]-[1,3,4]oxadiazol-2-yl}-N,N′,N′-trimethyl-propane-1,3-diamine] |  |  |
| 136 nM | CN(C)CCCNc1nnc(-c2ccc(F)c(F)c2Nc2ccc(I)cc2F)o1 [Example 16, N-{5-[3,4-Difluoro-2-(2-fluoro-4-iodo-phenylamino)-phenyl]-[1,3,4]oxadiazol-2-yl}-N′,N′-dimethyl-propane-1,3-diamine] |  |  |
|  | CCN(CC)CCCC(C)Nc1nnc(-c2ccc(F)c(F)c2Nc2ccc(I)cc2F)o1 (centres unmarked) [Example 64, N*4*-{5-[3,4-Difluoro-2-(2-fluoro-4-iodo-phenylamino)-phenyl]-[1,3,4]oxadiazol-2-yl}-N*1* ,N*1*-diethyl-pentane-1,4-diamine] | 0% | 18.2% |
|  | CCc1ccc(Nc2c(-c3nnc(NCC(c4cccnc4)N4CCOCC4)o3)ccc(F)c2F)c(F)c1 (centres unmarked) [Example 128, {5-[2-(4-Ethyl-2-fluoro-phenylamino)-3,4-difluoro-phenyl]-1,3,4-oxadiazol-2-yl}-(2-morpholin-4-yl-2-pyridin-3-yl-ethyl)-amine] | 0% | 0% |
|  | CCC(C)Nc1nnc(-c2ccc(F)c(F)c2Nc2ccc(I)cc2F)o1 (centres unmarked) [Example 46, sec-Butyl-{5-[3,4-difluoro-2-(2-fluoro-4-iodo-phenylamino)-phenyl]-[1,3,4]oxadiazol-2-yl}-amine] | 31.2% | 31.6% |
|  | Fc1cc(I)ccc1Nc1c(-c2nnc(NCCOc3ccccc3)o2)ccc(F)c1F [Example 34, {5-[3,4-Difluoro-2-(2-fluoro-4-iodo-phenylamino)-phenyl]-[1,3,4]oxadiazol-2-yl}-(2-phenoxy-ethyl)-amine] | 0% | 69% |
